Data: patent US9828385B2, “Spiro-oxazolones” (Hoffmann-La Roche Inc., priority 2014, dated 2017)

Target: T1, human V1a receptor (Homo sapiens, UniProt P37288)
T1 construct: expressed in transfected cells; host or cells: HEK293 cells, transiently transfected; cell membranes
Assay: human V1a receptor binding studies (3H-Vasopressin, SPA beads)
Conditions: membranes of HEK293 cells transiently transfected with human V1a receptor, Ki by Cheng-Prussoff from IC50, read-out: pKi hV1a (converted)
Protocol: The human V1a receptor was cloned by RT-PCR from total human liver RNA. The coding sequence was subcloned in an expression vector after sequencing to confirm the identity of the amplified sequence. […] Cell membranes were prepared from HEK293 cells transiently transfected with the expression vector and grown in 20 liter fermenters with the following protocol.
50 g of cells are re-suspended in 30 ml freshly prepared ice cold Lysis buffer (50 mM HEPES, 1 mM EDTA, 10 mM MgCl2 adjusted to pH=7.4+complete cocktail of protease inhibitor (Roche Diagnostics)). Homogenized with Polytron for 1 min and sonicated on ice for 2×2 minutes at 80% intensity (Vibracell sonicator). The preparation is centrifuged 20 min at 500 g at 4° C., the pellet is discarded and the supernatant centrifuged 1 hour at 43′000 g at 4° C. (19′000 rpm). The pellet is re-suspended in 12.5 ml Lysis buffer+12.5 ml Sucrose 20% and homogenized using a Polytron for 1-2 min. The protein concentration is determined by the Bradford method and aliquots are stored at −80° C. until use. For binding studies 60 mg Yttrium silicate SPA beads (Amersham) are mixed with an aliquot of membrane in binding buffer (50 mM Tris, 120 mM NaCl, 5 mM KCl, 2 mM CaCl2, 10 mM MgCl2) for 15 minutes with mixing. 50 μl of bead/membrane mixture is then added to each well of a 96 well plate, followed by 50 μl of 4 nM 3H-Vasopressin (American Radiolabeled Chemicals). For total binding measurement 100 μl of binding buffer are added to the respective wells, for non-specific binding 100 μl of […] cold vasopressin and for compound testing 100 μl of a serial dilution of each compound in 2% DMSO. The plate is incubated 1 h at room temperature, centrifuged 1 min at 1000 g and counted on a Packard Top-Count. Non-specific binding counts are subtracted from each well and data is normalized to the maximum specific binding set at 100%. To calculate an IC 50 the curve is fitted using a non-linear regression model (XLfit) and the Ki is calculated using the Cheng-Prussoff equation.

T1 sequence (P37288 whole entry): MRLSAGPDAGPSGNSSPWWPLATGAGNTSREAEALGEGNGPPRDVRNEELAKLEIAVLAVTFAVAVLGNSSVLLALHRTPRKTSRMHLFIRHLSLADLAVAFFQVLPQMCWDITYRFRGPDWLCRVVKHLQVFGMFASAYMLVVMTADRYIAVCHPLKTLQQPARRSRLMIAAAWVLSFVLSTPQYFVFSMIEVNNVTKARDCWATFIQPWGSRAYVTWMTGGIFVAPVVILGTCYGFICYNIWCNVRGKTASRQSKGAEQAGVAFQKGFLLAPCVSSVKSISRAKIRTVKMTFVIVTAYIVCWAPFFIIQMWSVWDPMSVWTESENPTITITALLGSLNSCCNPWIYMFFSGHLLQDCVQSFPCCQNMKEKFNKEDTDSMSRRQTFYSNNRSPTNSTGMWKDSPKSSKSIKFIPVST

Ki [nM] | SMILES
200 | CC1(Cc2ccc(Cl)s2)OC(N2CCC3(CC2)OCc2ccccc23)=NC1=O (single isomer, unassigned; (-)) [Example 87, (−)-5-[(5-Chlorothiophen-2-yl)methyl]-5-methyl-2-(1′H,3H-spiro[2-benzofuran-1,4′-piperidin]-1′-yl)-1,3-oxazol-4(5H)-one]
251 | CC1(CC2CCOC2)OC(N2CCC3(CC2)OCc2ccccc23)=NC1=O (single isomer, unassigned; diastereomer a) [Example 99, 5-Methyl-2-(1′H,3H-spiro[2-benzofuran-1,4′-piperidin]-1′-yl)-5-(tetrahydrofuran-3-ylmethyl)-1,3-oxazol-4(5H)-one diastereomer a]
20 | CC1(CC2CCCOC2)OC(N2CCC3(CC2)OCc2ccccc23)=NC1=O (single isomer, unassigned; diastereomer a) [Example 102, (+)-5-Methyl-2-(1′H,3H-spiro[2-benzofuran-1,4′-piperidin]-1′-yl)-5-(tetrahydro-2H-pyran-3-ylmethyl)-1,3-oxazol-4(5H)-one diastereomer a]
10 | CC1(CC2CCCOC2)OC(N2CCC3(CC2)OCc2ccccc23)=NC1=O (single isomer, unassigned; diastereomer a) [Example 103, (−)-5-Methyl-2-(1′H,3H-spiro[2-benzofuran-1,4′-piperidin]-1′-yl)-5-(tetrahydro-2H-pyran-3-ylmethyl)-1,3-oxazol-4(5H)-one diastereomer a]
12.6 | CC(c1ccccc1)C1(C)OC(N2CCC3(CC2)OCc2ccccc23)=NC1=O (single isomer, unassigned; diastereomer a) [Example 108, (+)-5-Methyl-5-(1-phenylethyl)-2-(1′H,3H-spiro[2-benzofuran-1,4′-piperidin]-1′-yl)-1,3-oxazol-4(5H)-one diastereomer a]
200 | CC(=O)O[C@H]1CC2(C[C@H]1OC(C)=O)OC(N1CCC3(CC1)OCc1ccccc13)=NC2=O (single isomer, unassigned; diastereomer a) [Example 120, 4-Oxo-2-(1′H,3H-spiro[2-benzofuran-1,4′-piperidin]-1′-yl)-1-oxa-3-azaspiro[4.4]non-2-ene-7,8-diyl diacetate diastereomer a]
200 | CO[C@H]1CC2(C[C@H]1OC)OC(N1CCC3(CC1)OCc1ccccc13)=NC2=O (single isomer, unassigned; diastereomer a) [Example 122, 7,8-Dimethoxy-2-(1′H,3H-spiro[2-benzofuran-1,4′-piperidin]-1′-yl)-1-oxa-3-azaspiro[4.4]non-2-en-4-one diastereomer a]
31.6 | CCCCCC1CCC2(CC1)OC(N1CCC3(CC1)OC(=O)c1ccccc13)=NC2=O (single isomer, unassigned; diastereomer a) [Example 126, 1′-[4-Oxo-8-pentyl-1-oxa-3-azaspiro[4.5]dec-2-en-2-yl]-3H-spiro[2-benzofuran-1,4′-piperidin]-3-one diastereomer a]
20 | CCCCCC1CCC2(CC1)OC(N1CCC3(CC1)OCc1ccccc13)=NC2=O (single isomer, unassigned; diastereomer a) [Example 128, 8-Pentyl-2-(1′H,3H-spiro[2-benzofuran-1,4′-piperidin]-1′-yl)-1-oxa-3-azaspiro[4.5]dec-2-en-4-one diastereomer a]

More lines, now with the values behind:

SMILES | Ki [nM]
CC1(Cc2ccccc2)OC(N2CCC3(CC2)OCc2ccccc23)=NC1=O (single isomer, unassigned; (-)) [Example 71, (−)-5-Benzyl-5-methyl-2-(1′H,3H-spiro[2-benzofuran-1,4′-piperidin]-1′-yl)-1,3-oxazol-4(5H)-one] | 79.4
CC1(CC2CCCC2)OC(N2CCC3(CC2)OCc2ccccc23)=NC1=O (single isomer, unassigned; (-)) [Example 78, (−)-5-(Cyclopentylmethyl)-5-methyl-2-(1′H,3H-spiro[2-benzofuran-1,4′-piperidin]-1′-yl)-1,3-oxazol-4(5H)-one] | 100
CC1(Cc2ccc(Cl)nc2)OC(N2CCC3(CC2)OCc2ccccc23)=NC1=O (single isomer, unassigned; (-)) [Example 83, (−)-5-[(6-Chloropyridin-3-yl)methyl]-5-methyl-2-(1′H,3H-spiro[2-benzofuran-1,4′-piperidin]-1′-yl)-1,3-oxazol-4(5H)-one] | 39.8
CCOCC1(C)OC(N2CCC3(CC2)OCc2ccccc23)=NC1=O (single isomer, unassigned; (-)) [Example 97, (−)-5-(Ethoxymethyl)-5-methyl-2-(1′H,3H-spiro[2-benzofuran-1,4′-piperidin]-1′-yl)-1,3-oxazol-4(5H)-one] | 1580
O=C1N=C(N2CCC3(CC2)OCc2ccccc23)OC1C(O)c1ccc(Cl)cc1 (single isomer, unassigned; diastereomer a) [Example 42, (−)-5-[(4-Chlorophenyl)(hydroxy)methyl]-2-(1′H,3H-spiro[2-benzofuran-1,4′-piperidin]-1′-yl)-1,3-oxazol-4(5H)-one diastereomer a] | 3.16
O=C1N=C(N2CCC3(CC2)OCc2ccccc23)OC1C(O)c1ccc(Cl)cc1 (single isomer, unassigned; diastereomer a) [Example 43, (+)-5-[(4-Chlorophenyl)(hydroxy)methyl]-2-(1′H,3H-spiro[2-benzofuran-1,4′-piperidin]-1′-yl)-1,3-oxazol-4(5H)-one diastereomer a] | 15.8
CC(c1ccccc1)C1(C)OC(N2CCC3(CC2)OCc2ccccc23)=NC1=O (single isomer, unassigned; diastereomer a) [Example 106, 5-Methyl-5-(1-phenylethyl)-2-(1′H,3H-spiro[2-benzofuran-1,4′-piperidin]-1′-yl)-1,3-oxazol-4(5H)-one diastereomer a] | 15.8
CC(c1ccccc1)C1(C)OC(N2CCC3(CC2)OCc2ccccc23)=NC1=O (single isomer, unassigned; diastereomer a) [Example 109, (−)-5-Methyl-5-(1-phenylethyl)-2-(1′H,3H-spiro[2-benzofuran-1,4′-piperidin]-1′-yl)-1,3-oxazol-4(5H)-one diastereomer a] | 50.1
CCOC(=O)C1[C@H]2CC3(C[C@@H]12)OC(N1CCC2(CC1)OCc1ccccc12)=NC3=O (single isomer, unassigned; diastereomer a) [Example 148, Ethyl 4′-oxo-2′-(1′H,3H-spiro[2-benzofuran-1,4′-piperidin]-1′-yl)-4′H-spiro[bicyclo[3.1.0]hexane-3,5′-[1,3]oxazole]-6-carboxylate diastereomer a] | 1000
O=C1N=C(N2CCC3(CC2)OCc2ccccc23)OC1C(O)c1ccc(Cl)cc1 (single isomer, unassigned; diastereomer b) [Example 44, (−)-5-[(4-Chlorophenyl)(hydroxy)methyl]-2-(1′H,3H-spiro[2-benzofuran-1,4′-piperidin]-1′-yl)-1,3-oxazol-4(5H)-one diastereomer b] | 126
O=C1N=C(N2CCC3(CC2)OCc2ccccc23)OC1C(O)c1ccc(Cl)cc1 (single isomer, unassigned; diastereomer b) [Example 45, (+)-5-[(4-Chlorophenyl)(hydroxy)methyl]-2-(1′H,3H-spiro[2-benzofuran-1,4′-piperidin]-1′-yl)-1,3-oxazol-4(5H)-one diastereomer b] | 15.8
CC1(CC2CCOC2)OC(N2CCC3(CC2)OCc2ccccc23)=NC1=O (single isomer, unassigned; diastereomer b) [Example 100, 5-Methyl-2-(1′H,3H-spiro[2-benzofuran-1,4′-piperidin]-1′-yl)-5-(tetrahydrofuran-3-ylmethyl)-1,3-oxazol-4(5H)-one diastereomer b] | 126
CC1(CC2CCCOC2)OC(N2CCC3(CC2)OCc2ccccc23)=NC1=O (single isomer, unassigned; diastereomer b) [Example 104, (+)-5-Methyl-2-(1′H,3H-spiro[2-benzofuran-1,4′-piperidin]-1′-yl)-5-(tetrahydro-2H-pyran-3-ylmethyl)-1,3-oxazol-4(5H)-one diastereomer b] | 50.1
CC1(CC2CCCOC2)OC(N2CCC3(CC2)OCc2ccccc23)=NC1=O (single isomer, unassigned; diastereomer b) [Example 105, (−)-5-Methyl-2-(1′H,3H-spiro[2-benzofuran-1,4′-piperidin]-1′-yl)-5-(tetrahydro-2H-pyran-3-ylmethyl)-1,3-oxazol-4(5H)-one diastereomer b] | 501
